# Source: ChEMBL document CHEMBL5352419, “Design, synthesis, and biological evaluation of tetrahydroquinoline amphiphiles as membrane-targeting antimicrobials against pathogenic bacteria and fungi” (Eur J Med Chem, 2022)
# Activity calls are given as the source filed them. The calls are words filed in the database; no cut-off is given here.
# Tests used:
# Staphylococcus aureus [1] = assay: Disruption of preformed biofilm in Staphylococcus aureus ATCC29213 assessed as residual preformed biofilm at 0.39 ug/mL incubated for 24 hrs by crystal violet staining based analysis relative to control; format: functional; conditions: dose 0.39 µg/ml
# Staphylococcus aureus [2] = assay: Disruption of preformed biofilm in Staphylococcus aureus ATCC29213 assessed as residual preformed biofilm at 3.125 ug/mL incubated for 24 hrs by crystal violet staining based analysis relative to control; format: functional; conditions: dose 3.125 µg/ml
# Staphylococcus aureus [3] = assay: Disruption of preformed biofilm in Staphylococcus aureus ATCC29213 assessed as residual preformed biofilm at 6.25 ug/mL incubated for 24 hrs by crystal violet staining based analysis relative to control; format: functional; conditions: dose 6.25 µg/ml
# Staphylococcus aureus [4] = assay: Antimicrobial activity against Staphylococcus aureus ATCC29213 assessed as bacterial growth inhibition incubated for 24 hrs by Muller Hinton broth based dilution assay; format: functional
# Staphylococcus aureus [5] = assay: Antibiofilm activity against Staphylococcus aureus ATCC29213 assessed as inhibition of biofilm formation at 6.25 ug/mL incubated for 24 hrs by crystal violet staining based analysis relative to control; format: functional
# Staphylococcus aureus [6] = assay: Antibiofilm activity against Staphylococcus aureus ATCC29213 assessed as inhibition of biofilm formation at 0.39 ug/mL incubated for 24 hrs by crystal violet staining based analysis relative to control; format: functional
# Staphylococcus aureus [7] = assay: Disruption of preformed biofilm in Staphylococcus aureus ATCC29213 assessed as residual preformed biofilm at 0.78 ug/mL incubated for 24 hrs by crystal violet staining based analysis relative to control; format: functional; conditions: dose 0.78 µg/ml
# Staphylococcus aureus [8] = assay: Antimicrobial activity against methicillin-resistant Staphylococcus aureus NCTC10442 assessed as bacterial growth inhibition incubated for 24 hrs by Muller Hinton broth based dilution assay; format: functional
# Escherichia coli [9] = assay: Antimicrobial activity against Escherichia coli ATCC25922 assessed as bacterial growth inhibition incubated for 24 hrs by Muller Hinton broth based dilution assay; format: functional
# Staphylococcus aureus [10] = assay: Antimicrobial activity against methicillin-resistant Staphylococcus aureus N315 assessed as bacterial growth inhibition incubated for 24 hrs by Muller Hinton broth based dilution assay; format: functional
# Staphylococcus aureus [11] = assay: Disruption of preformed biofilm in Staphylococcus aureus ATCC29213 assessed as residual preformed biofilm at 12.5 ug/mL incubated for 24 hrs by crystal violet staining based analysis relative to control; format: functional; conditions: dose 12.5 µg/ml
# Staphylococcus aureus [12] = assay: Antibiofilm activity against Staphylococcus aureus ATCC29213 assessed as inhibition of biofilm formation at 0.78 ug/mL incubated for 24 hrs by crystal violet staining based analysis relative to control; format: functional
# Escherichia coli [13] = assay: Induction of drug resistance in Escherichia coli ATCC25922 assessed as fold increase in MIC at sub-inhibitory concentration incubated for 21 to 22 passages; format: functional
# Pseudomonas aeruginosa [14] = assay: In vivo antibacterial activity against Pseudomonas aeruginosa ATCC9027 infected in keratitis C57BL/6 mouse model assessed as log reduction in bacterial load at 0.3 % administered topically 4 times per day for 3 days; format: functional; conditions: time 3 day
# Acinetobacter baumannii [15] = assay: Antimicrobial activity against Acinetobacter baumannii ATCC17978 assessed as bacterial growth inhibition incubated for 24 hrs by Muller Hinton broth based dilution assay; format: functional
# [16] = Hemolytic activity in rabbit RBC incubated for 1 hr by absorbance based microplate reader assay; format: toxicity, cell-based, Oryctolagus cuniculus, Erythrocyte; conditions: rabbit red blood cells (erythrocytes)
# Klebsiella pneumoniae [17] = assay: Antimicrobial activity against Klebsiella pneumoniae ATCC14581 assessed as bacterial growth inhibition incubated for 24 hrs by Muller Hinton broth based dilution assay; format: functional
# Cell membrane = assay: Disruption of outer membrane integrity in Acinetobacter baumannii ATCC17978 at 25 ug/mL; conditions: dose 25.0 µg/ml
# Candida albicans [18] = assay: Antimicrobial activity against Candida albicans ATCC10231 assessed as fungal growth inhibition incubated for 48 hrs by Sabouraud Dextrose broth based dilution assay; format: functional
# Pseudomonas aeruginosa [19] = assay: Antimicrobial activity against Pseudomonas aeruginosa ATCC9027 assessed as bacterial growth inhibition incubated for 24 hrs by Muller Hinton broth based dilution assay; format: functional
# Candida albicans [20] = assay: Antimicrobial activity against Candida albicans CMCC98001 assessed as fungal growth inhibition incubated for 48 hrs by Sabouraud Dextrose broth based dilution assay; format: functional
# Acinetobacter baumannii [21] = assay: Antimicrobial activity against Acinetobacter baumannii R2889 assessed as bacterial growth inhibition incubated for 24 hrs by Muller Hinton broth based dilution assay; format: functional
# Klebsiella pneumoniae [22] = assay: Antimicrobial activity against Klebsiella pneumoniae ATCC10031 assessed as bacterial growth inhibition incubated for 24 hrs by Muller Hinton broth based dilution assay; format: functional
# Staphylococcus aureus [23] = assay: Induction of drug resistance in Staphylococcus aureus ATCC29213 assessed as fold increase in MIC at sub-inhibitory concentration incubated for 21 to 22 passages; format: functional
smiles,measurement,setting,value
CN[C@H](CC(C)C)C(=O)N[C@H]1C(=O)N[C@@H](CC(N)=O)C(=O)N[C@H]2C(=O)N[C@H]3C(=O)N[C@H](C(=O)N[C@H](C(=O)O)c4cc(O)cc(O)c4-c4cc3ccc4O)[C@H](O)c3ccc(c(Cl)c3)Oc3cc2cc(c3O[C@@H]2O[C@H](CO)[C@@H](O)[C@H](O)[C@H]2O[C@H]2C[C@](C)(N)[C@H](O)[C@H](C)O2)Oc2ccc(cc2Cl)[C@H]1O [VANCOMYCIN],Activity,Staphylococcus aureus [1],98.16%
same,Activity,Staphylococcus aureus [2],49.44%
same,Activity,Staphylococcus aureus [3],10.69%
same,MIC,Staphylococcus aureus [4],0.78 µg/mL
same,inhibition at 6.25 µg/mL,Staphylococcus aureus [5],99.6%
same,inhibition at 0.39 µg/mL,Staphylococcus aureus [6],3.73%
same,Activity,Staphylococcus aureus [7],91.12%
same,MIC,Staphylococcus aureus [8],1.56 µg/mL
same,MIC,Escherichia coli [9],> 50 µg/mL
same,MIC,Staphylococcus aureus [10],1.56 µg/mL
same,Activity,Staphylococcus aureus [11],-0.81%
same,inhibition at 0.78 µg/mL,Staphylococcus aureus [12],30.3%
CC1(C)S[C@@H]2[C@H](NC(=O)[C@H](N)c3ccc(O)cc3)C(=O)N2[C@H]1C(=O)O,fold change (FC),Escherichia coli [13],16
COc1c(N2CCNC(C)C2)c(F)cc2c(=O)c(C(=O)O)cn(C3CC3)c12 (stereo not drawn) [GATIFLOXACIN],log(activity),Pseudomonas aeruginosa [14],3.7
CCCCCCCN1CCCc2cc(OCCCCCCCCNC(=N)N)ccc21,MIC,Staphylococcus aureus [4],1.56 µg/mL
same,MIC,Acinetobacter baumannii [15],25 µg/mL
same,MIC,Staphylococcus aureus [8],0.78 µg/mL
same,MIC,Escherichia coli [9],3.12 µg/mL
same,HC50 at 1 h,[16],> 200 µg/mL
same,MIC,Klebsiella pneumoniae [17],12.5 µg/mL
same,Activity,Cell membrane,inactive
same,MIC,Candida albicans [18],0.78 µg/mL
same,MIC,Pseudomonas aeruginosa [19],> 50 µg/mL
same,MIC,Staphylococcus aureus [10],0.78 µg/mL
same,MIC,Candida albicans [20],0.39 µg/mL
same,MIC,Acinetobacter baumannii [21],12.5 µg/mL
same,MIC,Klebsiella pneumoniae [22],12.5 µg/mL
CCn1cc(C(=O)O)c(=O)c2cc(F)c(N3CCNCC3)cc21,fold change (FC),Staphylococcus aureus [23],1024
